One series relates to 16 C. difficile isolates. The series can be described thus: MIC by broth microdilution, summary over 16 C. difficile isolates. The series is classed as cell-based, Clostridium difficile. Particulars: n = 2; for MIC50 / MIC90: Clostridioides difficile; for MIC50: MIC at which 50% of the 16 isolates are inhibited, read-out: MIC50; for MIC90: MIC at which 90% of the 16 isolates are inhibited, read-out: MIC90; for MIC Range: range over 16 C. difficile isolates.

The test system of series [1] is C. difficile isolate 20111163 (ribotype 024). Kind of series: MIC by broth microdilution. The series is classed as cell-based, Clostridium difficile. To be noted: Clostridioides difficile; isolate 20111163, ribotype 024; duplicate; read-out: MIC. A general note: Broth dilution looks for growth in wells or tubes with falling amounts of substance.
Series [2] relates to C. difficile isolate 20110742 (ribotype 002). The series can be described thus: MIC by broth microdilution. Particulars: Clostridioides difficile; isolate 20110742, ribotype 002; duplicate; read-out: MIC. It counts as cell-based, Clostridium difficile.
Series [3] has as its system C. difficile isolate 20110973 (ribotype 106). Kind of series: MIC by broth microdilution. The series is classed as cell-based, Clostridium difficile. To be noted: Clostridioides difficile; isolate 20110973, ribotype 106; duplicate; read-out: MIC.
Series [4] deals with C. difficile isolate 20110566 (ribotype 020). The series can be described thus: MIC by broth microdilution. It counts as cell-based, Clostridium difficile. To be noted: Clostridioides difficile; isolate 20110566, ribotype 020; duplicate; read-out: MIC.
The subject of series [5] is C. difficile isolate 20110986 (ribotype 078). Kind of series: MIC by broth microdilution. It counts as cell-based, Clostridium difficile. Particulars: Clostridioides difficile; isolate 20110986, ribotype 078; duplicate; read-out: MIC.
A further series is described as follows: Hemolysis assay. The series is classed as cell-based. To be noted: sheep, sheep red blood cells (3% suspension), pH 7.4; 32 µg/mL, 1 h, 37 °C; 1% Triton X-100 positive control; triplicate; read-out: Hemolysis (%). On the procedure:
Sheep red blood cells (Innovative Research, Novi, MI, USA) were washed three times with PBS pH 7.4. A 3% cell suspension in PBS (100 μL) was added to test compounds in PBS (100 μL, to a final concentration of 32 μg/mL), and then incubated at 37 °C for 1 h. The plate was centrifuged at 500 × g for 10 min, and supernatants (100 μL) were transferred to a clean 96-well plate. Hemolysis was determined by measuring absorbance at 540 nm, with 1% Triton X-100 as the positive control and 0.5% DMSO in PBS as the negative control. Hemolysis assays were performed in triplicate.

Series [6] concerns C. difficile isolate 20121412 (ribotype 047). Kind of series: MIC by broth microdilution. It counts as cell-based, Clostridium difficile. To be noted: Clostridioides difficile; isolate 20121412, ribotype 047; duplicate; read-out: MIC.
Series [7] deals with C. difficile isolate 20110961 (ribotype A12). The series can be described thus: MIC by broth microdilution. To be noted: Clostridioides difficile; isolate 20110961, ribotype A12; duplicate; read-out: MIC. It counts as cell-based, Clostridium difficile.
For series [8], the system named is C. difficile isolate 20100422 (ribotype 054). The series can be described thus: MIC by broth microdilution. It counts as cell-based, Clostridium difficile. Particulars: Clostridioides difficile; isolate 20100422, ribotype 054; duplicate; read-out: MIC.
Series [9] has as its system C. difficile isolate 20100584 (ribotype 014). The series can be described thus: MIC by broth microdilution. The series is classed as cell-based, Clostridium difficile. To be noted: Clostridioides difficile; isolate 20100584, ribotype 014; duplicate; read-out: MIC.
Series [10] deals with C. difficile isolate 20110960 (ribotype 017). The series can be described thus: MIC by broth microdilution. It counts as cell-based, Clostridium difficile. To be noted: Clostridioides difficile; isolate 20110960, ribotype 017; duplicate; read-out: MIC.
Series [11] concerns C. difficile isolate 20110869 (ribotype 001_072). The series can be described thus: MIC by broth microdilution. It counts as cell-based, Clostridium difficile. Particulars: Clostridioides difficile; isolate 20110869, ribotype 001_072; duplicate; read-out: MIC.
The subject of series [12] is C. difficile isolate 20120016 (ribotype 019). The series can be described thus: MIC by broth microdilution. It counts as cell-based, Clostridium difficile. Particulars: Clostridioides difficile; isolate 20120016, ribotype 019; duplicate; read-out: MIC.
Series [13] has as its system C. difficile isolate 20110740 (ribotype 018). The series can be described thus: MIC by broth microdilution. The series is classed as cell-based, Clostridium difficile. Particulars: Clostridioides difficile; isolate 20110740, ribotype 018; duplicate; read-out: MIC.
For series [14], the system named is C. difficile isolate 20121190 (ribotype 126). Kind of series: MIC by broth microdilution. The series is classed as cell-based, Clostridium difficile. To be noted: Clostridioides difficile; isolate 20121190, ribotype 126; duplicate; read-out: MIC.
A further series concerns P. distasonis ATCC 8503. Kind of series: MIC by broth microdilution. It counts as cell-based. To be noted: Parabacteroides distasonis, ATCC8503; P. distasonis ATCC 8503; supplemented Brucella broth, anaerobic; duplicate; read-out: MIC.
The next series relates to P. aeruginosa PAO1. Kind of series: MIC by broth microdilution. It counts as cell-based. Particulars: Pseudomonas aeruginosa; P. aeruginosa PAO1; CAMHB, aerobic; duplicate; read-out: MIC.
The subject of series [15] is B. longum subsp. longum Strain 44B. The series can be described thus: MIC by broth microdilution. It counts as cell-based. Particulars: Bifidobacterium longum; B. longum subsp. longum 44B; LSM broth, anaerobic; duplicate; read-out: MIC.
Series [16] concerns B. breve Strain EX336960VC19. The series can be described thus: MIC by broth microdilution. The series is classed as cell-based. To be noted: Bifidobacterium breve; B. breve EX336960VC19; LSM broth, anaerobic; duplicate; read-out: MIC.
Series [17] deals with L. johnsonii Strain 135-1-CHN. The series can be described thus: MIC by broth microdilution. It counts as cell-based. To be noted: Lactobacillus johnsonii, STRAIN1351CHN; L. johnsonii 135-1-CHN; CAMHB with 5% laked horse blood, ~48 h; duplicate; read-out: MIC.
In series [18] the test system is L. reuteri Strain CF48-3A. The series can be described thus: MIC by broth microdilution. Particulars: Limosilactobacillus reuteri; L. reuteri CF48-3A; CAMHB with 5% laked horse blood, ~48 h; duplicate; read-out: MIC. The series is classed as cell-based, Lactobacillus reuteri.
Series [19] has as its system C. difficile strain 4118 (CD4118, ATCC BAA-1870, ribotype 027). Kind of series: MIC by broth microdilution. It counts as cell-based, Clostridium difficile.
Series [20] concerns B. thetaiotaomicron ATCC 29148. The series can be described thus: microbe, parasite or virus in culture. It counts as cell-based. To be noted: Bacteroides thetaiotaomicron, ATCC29148; B. thetaiotaomicron ATCC 29148; supplemented Brucella broth, anaerobic; duplicate; read-out: MIC.
Series [21] concerns C. clostridioforme ATCC 25537. Kind of series: MIC by broth microdilution. To be noted: Clostridium, ATCC25537; C. clostridioforme ATCC 25537; BHIS, anaerobic; duplicate; read-out: MIC. The series is classed as cell-based, Clostridium clostridioforme.
Series [22] deals with panel of obligate aerobes, facultative anaerobes and obligate anaerobes. Kind of series: Antibacterial spectrum, MIC against a panel of bacteria. The series is classed as cell-based. Particulars: whole panel of Table S3.
The subject of another series is L. plantarum ATCC 8014. The series can be described thus: MIC by broth microdilution. Particulars: Lactiplantibacillus plantarum, ATCC8014; L. plantarum ATCC 8014; CAMHB with 5% laked horse blood, ~48 h; duplicate; read-out: MIC. The series is classed as cell-based.
Another series has as its system C. sporogenes ATCC 15579. The series can be described thus: MIC by broth microdilution. To be noted: Clostridium sporogenes, ATCC15579, BHIS, anaerobic, duplicate. It counts as cell-based.
In another series the test system is S. epidermidis 1457. The series can be described thus: MIC by broth microdilution. It counts as cell-based. To be noted: Staphylococcus epidermidis; S. epidermidis 1457; CAMHB, aerobic; duplicate; read-out: MIC.
The subject of a further series is P. nigrescens ATCC 33563. Kind of series: MIC by broth microdilution. The series is classed as cell-based. To be noted: Prevotella nigrescens, ATCC33563; P. nigrescens ATCC 33563; supplemented Brucella broth, anaerobic; duplicate; read-out: MIC.
Series [23] concerns B. fragilis Strain CL05T00C42. Kind of series: MIC by broth microdilution. The series is classed as cell-based. Particulars: Bacteroides fragilis; B. fragilis CL05T00C42; supplemented Brucella broth, anaerobic; duplicate; read-out: MIC.
A further series concerns A. baumannii M2. The series can be described thus: MIC by broth microdilution. The series is classed as cell-based. Particulars: Acinetobacter baumannii; A. baumannii M2; CAMHB, aerobic; duplicate; read-out: MIC.
The next series concerns B. subtilis ATCC 6051. Kind of series: MIC by broth microdilution. The series is classed as cell-based. To be noted: Bacillus subtilis, ATCC6051; B. subtilis ATCC 6051; CAMHB, aerobic; duplicate; read-out: MIC.
The next series has as its system S. aureus RN4220. The series can be described thus: MIC by broth microdilution. It counts as cell-based. To be noted: Staphylococcus aureus, CAMHB, aerobic, duplicate.
Series [24] has as its system C. difficile strain 630 (CD630, ATCC BAA-1382-FZ, ribotype 012). Kind of series: MIC by broth microdilution. The series is classed as cell-based, Clostridium difficile.

≈ marks a conversion by molar mass, not a printed value.

This is an account of results in publication PMC5025651, “Reprofiled anthelmintics abate hypervirulent stationary-phase Clostridium difficile” (Scientific Reports, 2016).

Consider `O=C(Nc1cc(Cl)cc(Cl)c1O)c1c(O)c(Cl)cc(Cl)c1Cl` [Oxyclozanide, oxyclozanide], for which the MIC50 with 16 C. difficile isolates was found to be 1 µg/mL (≈ 2.49 µM). Also, in the series on 16 C. difficile isolates, the MIC90 came out at 1 µg/mL (≈ 2.49 µM). Further, in the series on 16 C. difficile isolates, the “MIC Range” value is 0.5 to 2 µg/mL. Also, the MIC in series [1] is 0.5 µg/mL (≈ 1.25 µM); in series [2], 1 µg/mL (≈ 2.49 µM); in series [3], 1 µg/mL (≈ 2.49 µM); in series [4], 1 µg/mL (≈ 2.49 µM); in [5], 1 µg/mL (≈ 2.49 µM); in series [6] it was 2 µg/mL (≈ 4.98 µM). The MIC in [7] is 1 µg/mL (≈ 2.49 µM); in [8] it was 1 µg/mL (≈ 2.49 µM); in [9] it was 1 µg/mL (≈ 2.49 µM); in [10], 0.5 µg/mL (≈ 1.25 µM); in [11], 0.5 to 1 µg/mL (≈ 1.25 to 2.49 µM); in series [12] it was 0.5 µg/mL (≈ 1.25 µM). The MIC in [13] and in [14] was 1 µg/mL (≈ 2.49 µM) in each case. Further, the hemolysis at 1 h, 32 µg/mL in the series “Hemolysis assay” was less than 1%.

Turning to `O=C(Nc1ccc([N+](=O)[O-])cc1Cl)c1cc(Cl)ccc1O` [Niclosamide, niclosamide], the MIC50 in the series on 16 C. difficile isolates stood at 1 µg/mL (≈ 3.06 µM). In addition, the MIC90 in the series with 16 C. difficile isolates came to 2 µg/mL (≈ 6.11 µM). For the same molecule, in the series on 16 C. difficile isolates, the “MIC Range” value lay in the range of 0.5 to 4 µg/mL. In addition, the MIC in series [1], in [2], in series [3], in series [4], in [5] and in [6] was 1 µg/mL (≈ 3.06 µM) throughout. For the same molecule, the MIC is 1 µg/mL (≈ 3.06 µM) in series [7]; 0.5 µg/mL (≈ 1.53 µM) in series [8]; 0.5 µg/mL (≈ 1.53 µM) in [9]; 1 µg/mL (≈ 3.06 µM) in series [10]; 2 µg/mL (≈ 6.11 µM) in [11]; 0.5 µg/mL (≈ 1.53 µM) in series [12]. Besides, the MIC in [13] was 1 µg/mL (≈ 3.06 µM); in series [14], 0.5 µg/mL (≈ 1.53 µM). The hemolysis at 1 h, 32 µg/mL in the series “Hemolysis assay” was less than 1%.

Take `O=C(Nc1ccc(Oc2ccc(Cl)cc2)cc1)c1cc(I)cc(I)c1` [Compound 5i]: the MIC (in the series with P. distasonis ATCC 8503; with P. aeruginosa PAO1; in [15]; in series [16]; in series [17]; in series [18]) was greater than 32 µg/mL each time. The MIC in series [19] (Clostridioides difficile, ATCCBAA1870, BHIS broth, anaerobic, 20–24 h, n = 2, read-out: MIC C. difficile 4118) is greater than 32 µg/mL; in series [20], greater than 32 µg/mL; in series [21], greater than 32 µg/mL; in the series with L. plantarum ATCC 8014, greater than 32 µg/mL; against C. sporogenes ATCC 15579, greater than 32 µg/mL; with S. epidermidis 1457, greater than 32 µg/mL. Moreover, the MIC was greater than 32 µg/mL with P. nigrescens ATCC 33563; greater than 32 µg/mL in series [23]; greater than 32 µg/mL in the series with A. baumannii M2; greater than 32 µg/mL with B. subtilis ATCC 6051; greater than 32 µg/mL in the series on S. aureus RN4220; greater than 32 µg/mL in [24] (Clostridioides difficile, ATCCBAA1382, BHIS broth, anaerobic, 20–24 h, n = 2). Besides, in [19] (growth inhibition, MIC assay), the “in vitro activity against CD4118 (in words)” value was “inactive”. Moreover, in series [22], the “antibacterial activity (in words)” value is reported as “lacked antibacterial activity”. Further, the “in vitro activity against CD630 (in words)” value in series [24] (growth inhibition, MIC assay) was “inactive”.

As a reminder, the MIC50 is an inhibitory concentration at the 50% level, which refers to growth in some studies and to a panel of isolates in others. For orientation: MIC90 means the lowest concentration that inhibits either 90% of growth or 90% of the strains tested, depending on the study.
